Patent US4358456A, “Antipsychotic piperidinomethyl-indole derivatives” (John Wyeth & Brother Limited, priority 1980, dated 1982)

How the values were obtained:
[1] = test system: dopamine receptors; assay: Dopamine antagonism, overall statement on Tests 1, 2 and 3; conditions: for antagonist activity at dopaminergic reception (in words): results of Table 2, Tests 1 and 3, 50 mg/kg for Examples 6 and 7
[2] = test system: dopamine receptors; assay: Test 1 Inhibition of Amphetamine Induced Stereotypy; assay type: in vivo, rats; conditions: for ED50, inhibition of amphetamine induced stereotypy: rats
Text: Test 1 Inhibition of Amphetamine Induced Stereotypy

[3] = test system: dopamine receptors; assay: Test 3 Inhibition of p-chloroamphetamine hyperactivity; assay type: in vivo, mice; conditions: for ED50, inhibition of pCA induced hyperactivity: Table 2, mice
Description: Test 3 Inhibition of p-chloroamphetamine hyperactivity
C=mean activity of control groups 10-30 minutes post pCA.
T=mean activity of treated groups 10-30 minutes post pCA.
This test is used as an in vivo screen for detection of 5-hydroxytryptamineuptake inhibitors.

[4] = test system: dopamine receptors; assay: Test 2 Inhibition of Apomorphine Induced Climbing; assay type: in vivo, mice; conditions: Table I; for ED50, inhibition of apomorphine induced climbing: mice, compound one hour before 10 mg/kg apomorphine, dose reducing climbing score by 50%
[5] = Test 5 Increase in Fall Rate From Revolving Drum (ability to induce extrapyramidal effects); assay type: in vivo, mice; conditions: for TD50 at 1 h: mouse, in vivo, po, mice, one hour after dosing, dose inducing fall rate half of maximum theoretically possible, read-out: ED50, increase in fall rate from revolving drum
Description: Test 5 Increase in Fall Rate From Revolving Drum
Groups of 8 mice were trained to walk on a slowly revolving horizontal drum prior to dosing with various concentrations of the test drugs or vehicle. An hour later the mice were replaced on the drum and the number of times each animal fell during the following 3 minutes was noted (mice were replaced immediately after each fall). […] The doses shown are those calculated to induce a fall rate half that of the maximum theoretically possible.

[6] = Test 4 Increase in Halothane Induced Sleep Time (sedative potential); assay type: in vivo, mice; conditions: for ED50, increase in halothane induced sleep time: mice, one hour before 3% halothane, dose increasing duration of loss of righting reflex by 50%
Description: Test 4 Increase in Halothane Induced Sleep Time
Groups of 6 mice received the test compounds or the requisite volume of vehicle p.o. one hour before being placed in a perspex container. A gas mixture containing 3% halothane in oxygen was passed through this container for 5 minutes. Next the mice were removed and placed on their backs and the latency to the restoration of the righting reflex noted.
The doses shown are those calculated to increase the duration of halothane induced loss of righting reflex by 50%.

[7] = Table I, compound one hour before 5 mg/kg d-amphetamine

Compound	antagonist activity at dopaminergic reception (in words) [1]	ED50, inhibition of amphetamine induced stereotypy ([2]; Table 2, 5 mg/kg d-amphetamine) [mg/kg p.o.]	ED50, inhibition of pCA induced hyperactivity ([3]; 20 mg/kg pCA ip) [mg/kg p.o.]	ED50, inhibition of amphetamine induced stereotypy [2, 7] [mg/kg p.o.]	ED50, inhibition of apomorphine induced climbing [4] [mg/kg p.o.]	TD50 at 1 h ([5]; Table I) [mg/kg]	ED50, increase in halothane induced sleep time ([6]; Table I) [mg/kg p.o.]	also measured
OC1(c2ccccc2)CCN(CCc2c[nH]c3ccccc23)CC1 [Example 6, 1-(2-(Indol-3-yl)ethyl)-4-hydroxy-4-phenylpiperidine, reference compound]	neither of the compounds of Examples 6 and 7 posses significant antagonist activity	> 50	> 50	–	–	–	–	–
O=C(CCCN1CCC(O)(c2ccc(Cl)cc2)CC1)c1ccc(F)cc1 [Haloperidol, haloperidol, reference compound]	–	–	–	0.7	0.5	0.9	0.2	ED50, inhibition of p-chloro amphetamine hyperactivity ([3]; Table I, female mice, 20 mg/kg pCA ip, activity 10-30 minutes post pCA): 0.3 mg/kg p.o.; dose prolonging halothane-induced sleep compared with doses inhibiting dopaminergic responses (in words) ([6]; Test 4 versus Tests 1-3): prolongs halothane-induced sleep at doses lower than those required to ihibit dopaminergic responses
OC1(c2ccc(Cl)cc2)CCN(Cc2c[nH]c3ccccc23)CC1 [Example 1, 1-(Indol-3-ylmethyl)-4-hydroxy-4-(p-chlorophenyl)piperidine]	both show activity	25	10	25	20	50	200	dopamine antagonist potency compared with haloperidol (in words) ([1]; Tests 1, 2 and 3, versus haloperidol): less potent dopamine antagonist than haloperidol; relative potency of Examples 1 and 2 (in words) ([1]; results of Table 2, Example 1 versus Example 2): the more potent; A/B (ED50 Example 1 / ED50 Haloperidol), amphetamine induced stereotypy ([2]; Table I, ratio to haloperidol): 36; A/B (ED50 Example 1 / ED50 Haloperidol), apomorphine induced climbing ([4]; ratio to haloperidol): 40; A/B (ED50 Example 1 / ED50 Haloperidol), p-chloro amphetamine hyperactivity ([3]; Table I, ratio to haloperidol): 33; A/B (ED50 Example 1 / ED50 Haloperidol), fall rate from revolving drum ([5]; Table I, ratio to haloperidol): 56; unwanted extrapyramidal effects compared with haloperidol (in words) ([5]; versus haloperidol): exhibits an advantage with regard to unwanted extrapyramidal effects; A/B (ED50 Example 1 / ED50 Haloperidol), halothane induced sleep time ([6]; Table I, ratio to haloperidol): 1000; selectivity ratio ([6]; mouse, in vivo, po, ratio of Test 4 dose to doses in Tests 1-3, read-out: dose prolonging halothane-induced sleep relative to doses required to inhibit dopaminergic responses): 8 to 20; sedative potential compared with haloperidol (in words) ([6]; versus haloperidol): lower than that of haloperidol
OC1(c2ccccc2)CCN(Cc2c[nH]c3ccccc23)CC1 [Example 2, 1-(Indol-3-ylmethyl)-4-hydroxy-4-phenylpiperidine]	both show activity	–	32.6	–	–	–	–	–
OC1(c2ccc(Cl)cc2)CCN(CCc2c[nH]c3ccccc23)CC1 [Example 7, 1-(2-(Indol-3-yl)ethyl)-4-(p-chlorophenyl)-4-hydroxypiperidine, reference compound]	neither of the compounds of Examples 6 and 7 posses significant antagonist activity	> 50	> 50	–	–	–	–	–
